Patent publication US20020052325A1, “Anticonvulsant derivatives useful in maintaining weight loss” (priority 1999, published 2002)
Where two headings read alike, the source gives them in different places.

What was measured:
[1] = Weight loss in patients treated with topiramate as adjunctive therapy in epilepsy; type: in vivo, human
Experimental: Further, carboxylic acids and aldehydes of the formulae RCOOH and RCHO may be reduced to compounds of the formula RCH2OH by standard reduction techniques, e.g. reaction with lithium aluminum hydride, sodium borohydride or borane-THF complex in an inert solvent such a diglyme, THF or toluene at a temperature of about 0° to 100° C., e.g. as described by H. O. House in “Modern Synthetic Reactions”, 2nd Ed., pages 45 to 144 (1972). In patients treated with topiramate as an adjunctive therapy in epilepsy (n=1319), mean weight loss of 4.6% of baseline weight was observed. The mean daily dosage of topiramate was 621.9 mg/day and the mean duration of dosing was 688.8 days. […] On topiramate treatment, there is gradual weight loss over time, with maintenance of the weight lost to 24 months of therapy; thus the mean percentage decrease in weight for all subjects (n=1319) was 4.6%, with similar weight loss maintained at one year (4.9%) and two years (4.5%) of treatment. This pattern is also seen in those patients with weight in excess of 100 kg at baseline (n=127), who lost a mean of 8.4% weight overall, with loss of 9.4% at one year and 9.9% at two years.

[2] = system: simple and complex partial seizures and secondarily generalized seizures; details: adjunctive therapy or monotherapy, human epilepsy; cited from earlier work
seizures [3] = details: several rodent models of epilepsy; cited from earlier work
seizures [4] = details: animal model of kindled epilepsy; cited from earlier work
[5] = overweight individuals; cited from earlier work

CC1(C)O[C@@H]2[C@@H](CO[C@@]3(COS(N)(=O)=O)OC(C)(C)O[C@@H]23)O1 [topiramate, 2,3:4,5-bis-O-(1-methylethylidene)-β-D-fructopyranose sulfamate]
mean percentage decrease in weight ([1]; all subjects (n=1319), at one year of treatment): 4.9% | mean percentage decrease in weight ([1]; all subjects (n=1319), at two years of treatment): 4.5% | mean weight loss of baseline weight ([1]; all subjects (n=1319), overall, mean daily dosage 621.9 mg/day, mean duration of dosing 688.8 days): 4.6% | mean decrease in weight ([1]; subjects >100 kg at baseline (n=127), at one year): 9.4% | mean decrease in weight ([1]; subjects >100 kg at baseline (n=127), at two years): 9.9% | mean decrease in weight ([1]; subset of subjects weighing >100 kg at baseline (n=127), overall, mean daily dose 873.5 mg/day, mean duration of dosing 881.8 days): 8.4% | efficacy in treating seizures [2]: effective as adjunctive therapy or as monotherapy | seizure block (seizures [3]): effectively block seizures | seizure block (seizures [4]): effectively block seizures | weight reduction [5]: effectively reduce the weight
